Test results taken from ChEMBL document CHEMBL1201862, “PubChem BioAssay data set” (2004).
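Cultured in 96-well plates, cells were exposed to test compound for 48 hours across five concentrations. GI50 is the concentration that inhibits growth by half.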 Calls of active or inactive are those of the source. No stated cut-off is given here; in the data, active = GI50 up to about 1.1 µM and inactive = higher.

Assays:
Assay in all cases: inhibition of tumour cell growth, NCI panel, 48 h
[1] = tested on: DLD-1
[2] = tested on: RXF 631
[3] = tested on: DMS-114
[4] = tested on: SNB-78
[5] = tested on: DMS-273
[6] = tested on: M19-MEL
[7] = tested on: XF498
[8] = tested on: KM-20L2
[9] = tested on: LXFL 529

With `CC1(C)CC(Nc2ccc(Nc3ccccc3)cc2)CC(C)(C)N1` the GI50 [1] was 70.5 µM (inactive), the GI50 [2] was 18.6 µM (inactive) and the GI50 [3] was 21.2 µM (inactive). For the same compound, the GI50 [4] was 66.2 µM (inactive), the GI50 [5] was 41.7 µM (inactive) and the GI50 [6] was 35.2 µM (inactive). For the same compound, the GI50 [7] was 22.5 µM (inactive), the GI50 [8] was 26.1 µM (inactive) and the GI50 [9] was 25.1 µM (inactive).
In the case of `COc1ccc2c(c1)[n+]([O-])c(/C(C)=N/NC(=O)c1ccccc1O)c(C)[n+]2[O-]`, the GI50 [1] is reported as > 100 µM (inactive), the GI50 [2] is reported as > 100 µM (inactive) and the GI50 [3] is reported as > 100 µM (inactive). The GI50 [4] was > 100 µM (inactive), the GI50 [6] was > 100 µM (inactive) and the GI50 [7] was 81.5 µM (inactive). For the same compound, the GI50 [8] was > 100 µM (inactive) and the GI50 [9] was > 100 µM (inactive).
For `O=C(c1ccccc1)c1nc2ccc(Cl)cc2c2c1Cc1ccccc1-2`, the GI50 [1] was > 100 µM (inactive), the GI50 [3] was > 100 µM (inactive) and the GI50 [5] was > 100 µM (inactive). The GI50 [6] was > 100 µM (inactive), the GI50 [7] was > 100 µM (inactive) and the GI50 [8] was > 100 µM (inactive). For the same compound, the GI50 [9] was > 100 µM (inactive).
`C=C1C(=O)OC2C/C(C)=C/CC/C(C)=C/CCC3(COC(C)=O)OC3CC12` (stereo not drawn) was tested, and the GI50 [1] was 3.81 µM (inactive), the GI50 [3] was 4.09 µM (inactive) and the GI50 [4] was 7.71 µM (inactive). For the same compound, the GI50 [5] was 3.87 µM (inactive), the GI50 [6] was 13.1 µM (inactive) and the GI50 [7] was 7.11 µM (inactive). The GI50 [8] was 6.93 µM (inactive) and the GI50 [9] was 2.77 µM (inactive).
For `Cc1cc(Cl)ccc1NC(=O)CCCC(=O)C1C/C(=N/O)CC/C1=N\O` (stereo not drawn), the GI50 [1] was > 100 µM (inactive), the GI50 [2] was > 100 µM (inactive) and the GI50 [3] was > 100 µM (inactive). The GI50 [4] was > 100 µM (inactive), the GI50 [5] was > 100 µM (inactive) and the GI50 [6] was > 100 µM (inactive). The GI50 [7] was > 100 µM (inactive), the GI50 [8] was > 100 µM (inactive) and the GI50 [9] was > 100 µM (inactive).
`C#CC(C)(C)Oc1cc(O)c2c(=O)c3ccccc3n(C)c2c1` was tested, and the GI50 [2] was > 100 µM (inactive), the GI50 [3] was > 100 µM (inactive) and the GI50 [4] was > 100 µM (inactive). For the same compound, the GI50 [5] was 23.1 µM (inactive), the GI50 [7] was > 100 µM (inactive) and the GI50 [8] was > 100 µM (inactive). The GI50 [9] was > 100 µM (inactive).
In the case of `N#Cc1cccc2c1Nc1ccccc1S2`, the GI50 [1] is reported as > 100 µM (inactive), the GI50 [3] is reported as 81.1 µM (inactive) and the GI50 [4] is reported as 67.9 µM (inactive). For the same compound, the GI50 [5] was > 100 µM (inactive), the GI50 [6] was > 100 µM (inactive) and the GI50 [7] was 41.8 µM (inactive). The GI50 [8] was > 100 µM (inactive).
In the case of `COC(=O)C(=C/c1ccc(OC)cc1)/C(C(=O)O)=C(/C)c1ccccc1`, the GI50 [1] is reported as > 100 µM (inactive), the GI50 [4] is reported as > 100 µM (inactive) and the GI50 [5] is reported as > 100 µM (inactive). For the same compound, the GI50 [6] was > 100 µM (inactive), the GI50 [7] was > 100 µM (inactive) and the GI50 [8] was > 100 µM (inactive). For the same compound, the GI50 [9] was > 100 µM (inactive).
With `Cc1ccc(S(=O)(=O)NC(=O)C#CCOC2CCCCO2)cc1` (stereo not drawn) the GI50 [1] was > 100 µM (inactive), the GI50 [2] was > 100 µM (inactive) and the GI50 [3] was > 100 µM (inactive). The GI50 [5] was > 100 µM (inactive), the GI50 [6] was > 100 µM (inactive) and the GI50 [7] was > 100 µM (inactive). The GI50 [8] was > 100 µM (inactive) and the GI50 [9] was > 100 µM (inactive).
In the case of `COc1ccc2nc3cc(Cl)ccc3c(NCCC[N+](C)(C)CCCCCCCCCCCCCCCC[N+](C)(C)CCCNc3c4ccc(Cl)cc4nc4ccc(OC)cc34)c2c1`, the GI50 [1] is reported as 3.11 µM (inactive), the GI50 [2] is reported as 7.14 µM (inactive) and the GI50 [3] is reported as 1.89 µM (inactive). The GI50 [5] was 1.77 µM (inactive), the GI50 [6] was 1.97 µM (inactive) and the GI50 [8] was 3.3 µM (inactive). The GI50 [9] was 1.79 µM (inactive).
With `COc1cc(Nc2cnc3cc(C(F)(F)F)ccc3n2)cc(OC)c1OC` the GI50 [1] was > 100 µM (inactive), the GI50 [2] was > 100 µM (inactive) and the GI50 [4] was > 100 µM (inactive). The GI50 [5] was > 100 µM (inactive), the GI50 [6] was > 100 µM (inactive) and the GI50 [7] was > 100 µM (inactive). The GI50 [8] was > 100 µM (inactive) and the GI50 [9] was > 100 µM (inactive).
`O=C(Nc1ccccc1C(=O)NC(=O)c1ccccc1NC(=O)c1ccccc1)c1ccccc1` was tested, and the GI50 [1] was 12.5 µM (inactive), the GI50 [3] was 2.17 µM (inactive) and the GI50 [5] was 2.29 µM (inactive). For the same compound, the GI50 [7] was 1.69 µM (inactive) and the GI50 [8] was 3.15 µM (inactive).
`COc1ccccc1NC(=O)NS(=O)(=O)c1ccccc1` was tested, and the GI50 [1] was > 100 µM (inactive), the GI50 [3] was > 100 µM (inactive) and the GI50 [4] was > 100 µM (inactive). The GI50 [5] was > 100 µM (inactive), the GI50 [6] was > 100 µM (inactive) and the GI50 [8] was > 100 µM (inactive). For the same compound, the GI50 [9] was > 100 µM (inactive).
`CC(C)N(C(=O)C12C3C4C1C1C2C3C41C(=O)C(C)(C)C)C(C)C` (stereo not drawn) was tested, and the GI50 [1] was > 100 µM (inactive), the GI50 [3] was 52.5 µM (inactive) and the GI50 [4] was > 100 µM (inactive). The GI50 [5] was > 100 µM (inactive), the GI50 [6] was > 100 µM (inactive) and the GI50 [7] was > 100 µM (inactive). For the same compound, the GI50 [8] was > 100 µM (inactive) and the GI50 [9] was > 100 µM (inactive).
`CC1=C(C(=O)NCc2ccccc2)C(/C=C/c2ccccc2)C(C(=O)NCc2ccccc2)=C(C)N1` was tested, and the GI50 [1] was > 100 µM (inactive), the GI50 [3] was > 100 µM (inactive) and the GI50 [4] was > 100 µM (inactive). For the same compound, the GI50 [5] was > 100 µM (inactive), the GI50 [6] was > 100 µM (inactive) and the GI50 [7] was > 100 µM (inactive). The GI50 [8] was > 100 µM (inactive) and the GI50 [9] was > 100 µM (inactive).
In the case of `COc1c(I)c(OC)c2c(c1I)O[C@@H]1OCC[C@H]21`, the GI50 [1] is reported as > 100 µM (inactive), the GI50 [2] is reported as 29.9 µM (inactive) and the GI50 [3] is reported as 26.5 µM (inactive). The GI50 [4] was 57.9 µM (inactive), the GI50 [5] was 23.1 µM (inactive) and the GI50 [6] was 23.8 µM (inactive). The GI50 [7] was 30.3 µM (inactive), the GI50 [8] was 65.3 µM (inactive) and the GI50 [9] was 26.9 µM (inactive).
`O=[N+]([O-])c1ccc(N=P(c2ccccc2)(c2ccccc2)c2ccccc2)n2nnnc12` was tested, and the GI50 [3] was 72.3 µM (inactive), the GI50 [5] was > 100 µM (inactive) and the GI50 [6] was 82 µM (inactive). The GI50 [7] was 32.7 µM (inactive), the GI50 [8] was > 100 µM (inactive) and the GI50 [9] was 48.3 µM (inactive).
`Cc1cccc(C)c1NC(=O)C(=O)Nn1c(NN)nc2ccccc2c1=O` was tested, and the GI50 [2] was > 100 µM (inactive), the GI50 [3] was > 100 µM (inactive) and the GI50 [4] was > 100 µM (inactive). The GI50 [5] was > 100 µM (inactive), the GI50 [6] was > 100 µM (inactive) and the GI50 [8] was > 100 µM (inactive). For the same compound, the GI50 [9] was > 100 µM (inactive).
In the case of `CCCCOC(=O)NC(=O)c1cn(CCCOC(=O)CCCCCCCCC(=O)OCCCn2cc(C(=O)NC(=O)OCCCC)c(=O)[nH]c2=O)c(=O)[nH]c1=O`, the GI50 [1] is reported as > 100 µM (inactive), the GI50 [2] is reported as 98.6 µM (inactive) and the GI50 [3] is reported as > 100 µM (inactive). For the same compound, the GI50 [6] was > 100 µM (inactive), the GI50 [7] was > 100 µM (inactive) and the GI50 [8] was > 100 µM (inactive). For the same compound, the GI50 [9] was > 100 µM (inactive).
With `COc1cccc2c1C(=O)c1c(O)c3c(c(O)c1C2=O)C[C@@](O)(C(=O)CO)CC3OC1CC(O)C(O)C(C)O1` (stereo partly drawn) the GI50 [1] was 0.385 µM (active), the GI50 [2] was 0.188 µM (active) and the GI50 [3] was 0.188 µM (active). For the same compound, the GI50 [4] was 1.28 µM (inactive), the GI50 [5] was 0.033 µM (active) and the GI50 [6] was 0.218 µM (active). For the same compound, the GI50 [7] was 0.102 µM (active), the GI50 [8] was 0.592 µM (active) and the GI50 [9] was 0.461 µM (active).
`Cc1ccccc1-n1c(CCl)nc2ccc(Br)cc2c1=O` was tested, and the GI50 [1] was 3.82 µM (inactive), the GI50 [2] was 16.9 µM (inactive) and the GI50 [3] was 7.46 µM (inactive). The GI50 [4] was 18.2 µM (inactive), the GI50 [5] was 26 µM (inactive) and the GI50 [6] was 6.15 µM (inactive). The GI50 [8] was 17.8 µM (inactive) and the GI50 [9] was 0.887 µM (active).
In the case of `N#Cc1nc(Nc2ccc([N+](=O)[O-])cc2)sc1N`, the GI50 [1] is reported as 23.4 µM (inactive), the GI50 [2] is reported as 11.4 µM (inactive) and the GI50 [4] is reported as 32.2 µM (inactive). For the same compound, the GI50 [5] was 21.2 µM (inactive), the GI50 [6] was 25.2 µM (inactive) and the GI50 [7] was 17.3 µM (inactive). The GI50 [8] was 23.9 µM (inactive) and the GI50 [9] was 8.69 µM (inactive).
In the case of `O=C1C2C3C=C4c5ccccc5N(c5ccccc5)C4([C@@H]2C(=O)N1c1ccc(F)cc1)[C@H]1C(=O)N(c2ccc(F)cc2)C(=O)[C@@H]31` (stereo partly drawn), the GI50 [1] is reported as > 100 µM (inactive), the GI50 [3] is reported as > 100 µM (inactive) and the GI50 [4] is reported as 82.2 µM (inactive). For the same compound, the GI50 [6] was > 100 µM (inactive) and the GI50 [7] was > 100 µM (inactive).
In the case of `C=C1CC2OC(=O)C(=C)C2C(O)C2C(=C)CCC12` (stereo not drawn), the GI50 [1] is reported as 10.1 µM (inactive), the GI50 [3] is reported as 4.55 µM (inactive) and the GI50 [4] is reported as 6.56 µM (inactive). The GI50 [5] was 8.2 µM (inactive), the GI50 [6] was 5.19 µM (inactive) and the GI50 [9] was 4.33 µM (inactive).
